Data: patent US20230167437A1, “COMPOSITIONS FOR TREATING CANCER WITH KRAS MUTATIONS AND USES THEREOF” (Aadigen, LLC, priority 2020, published 2023)

How the values were obtained:
Format in all cases: cell-based, human
KRAS 34G>T mutant G12C = experiment: Indel frequencies at the endogenous target sequences (T7E1 / deep sequencing) after ADGN/Cas9 mRNA/gRNA transfection; settings: Mia-PACA, H23, H358 vs HT29 and PANC1 cells
Description: (§1) Complex formation with mRNA:gRNA: ADGN peptide/mRNA/gRNA particles were prepared at a 20:1:1 molar ratio. ADGN/Cas9mRNA/sgRNA complexes were prepared at a 20/1/1 molar ratio with 0.5 μg mRNA: 1.5 μg sgRNA and 5% Glucose or DMEM (example for 96 well plates). […] Premixed Cas9 mRNA/gRNA were prepared in sterile water at room temperature in a glass vial (1-4 ml). ADGN-peptide solution was added dropwise (1 drop/sec) under magnetic agitation at 400 rpm to obtain a 1:2 ratio, and incubated for 30 min at room temperature or 37° C. Just before transfection, 150 μl Glucose or DMEM was added and the solution was mixed under magnetic agitation at 400 rpm for 1 minute. Then the solution was incubated for 5 min at 37° C. Then the complexes was ready for cell transfection or IV administration. Prior to IV administration, complexes were diluted in sucrose 5% solution.
(§2) Transfection protocol. The following protocols are reported for 24/48/96 well plate format transfection. Cells should be trypsinized and seeded a day prior transfection Cells were cultured in Dulbecco's Modified Eagle's Medium (DMEM), supplemented with 2 mM glutamine, 1% antibiotics (streptomycin 10,000 μg/mL, penicillin, 10,000 IU/mL) and 10% (w/v) foetal calf serum (FCS), at 37° C. in a humidified atmosphere containing 5% CO2. 96 well plates seeded with 50,000 cells, the day prior transfection, grown to 60-80% confluence and set up to be at around 70% confluence at the day of transfection. Before transfection, cells are washed twice with DMEM (without FBS and pen/strep) (100 μl/well). Cells were then overlaid with 25 μl of complex solution, mixed gently and incubated for 10 min at 37° C.+5% CO2. 50 μl of fresh DMEM (without FBS and Antibiotics) was added and cells were incubated for 2 h at 37° C.+5% CO2 (time of exposure can be adjusted based on sensitivity of the cells). 250 μL of DMEM (containing 10% FCS and 1% antibiotics) were then added without removing the overlay of ADGN peptide/mRNA complexes. Cells were returned to the incubator (37° C., 5% CO2) and analyzed 48 hours to 72 hours post transfection.
Eight different gRNAs targeting KRAS 34G>T mutant G12C (gRNA34T1, gRNA34T2, gRNA34T3, gRNA34T4, gRNA34T5, gRNA34T6, gRNA34T7 and gRNA34T8) were evaluated on MIA-PACA, H23, H358, H29 and PANC1 cells. Cas9 mRNA (0.1 μg) and gRNA (0.2 μg) were associated with ADGN peptide at molar ratio 20/1 (peptide/nucleic acid). MIA-PACA, H23, H358, PANC1 and HT29 cells were cultured in 48 well plate format and treated with free mRNACas9-gRNA, or ADGN/mRNACas9:gRNA complex. Indel frequencies at the endogenous target sequences was evaluated 72 hours after transfection by either T7E1 method or deep sequencing. Cell proliferation was analyzed over a period of 5 days using CellTiter Glow kits on GlowMax (Promega).
(§3) In order to confirm the specificity of sgRNAs targeting G12V, G12C or G12D KRAS mutation, gRNA35T3 targeting G12V, gRNA34T6 targeting G12C, and gRNA35A5 targeting G12D were evaluated on a large panel of cancer cells harboring different KRAS mutations including SW403, SW480, PANC1, PK-45H, PK-1, MIA-PACA, H23, H358, HT-29, HS-68 and LS513. Cas9 mRNA (0.2 μg) and gRNA (0.4 μg) were associated with ADGN peptide at molar ratio 20/1 (peptide/nucleic acid). Cells were cultured in 48 well plate format and treated with free mRNACas9-gRNA, or ADGN/mRNACas9:gRNA complex. Indel frequencies at the endogenous target sequences was evaluated 72 hours after transfection by either T7E1 method and cell proliferation was analyzed over a period of 5 days using CellTiter Glow kits on GlowMax (Promega).

wild type KRAS = experiment: as above; settings: deep sequencing, 72 hours after transfection, Cas9 mRNA 0.1 μg, gRNA 0.2 μg
Description: as §1, §2
(§4) Nine different gRNAs targeting KRAS 35G>T mutant G12V (gRNA35T1, gRNA35T2, gRNA35T3, gRNA35T4, gRNA35T5, gRNA35T6, gRNA35T7, gRNA35T8 and gRNA35T9 (see FIG. 18)) were evaluated on SW403 and SW480 cancer cells harboring G12V KRAS mutation. Cas9 mRNA (0.15 μg) and gRNA (0.2 μg) were associated with ADGN-peptides as reported in experimental procedure. SW403, SW480 and HT-29 cells were cultured in 48 well plate format and treated with free mRNACas9-gRNA, or ADGN-100/mRNACas9:gRNA complex. Indel frequencies at the endogenous target sequences was evaluated 72 hours after transfection by either T7E1 method and by deep sequencing. Cell proliferation was analyzed over a period of 5 days using CellTiter Glow kits on GlowMax (Promega).
(§5) Nine different gRNAs targeting KRAS 35G>A mutant G12D (gRNA35A1, gRNA35A2, gRNA35A3, gRNA35A4, gRNA35A5, gRNA35A6; gRNA35A7, gRNA35A8, gRNA35A9) were evaluated on LS513, Panc1, PK-45H, and PK1 cancer cells harboring G12D KRAS mutation. Cas9 mRNA (0.1 μg) and gRNA (0.2 μg) were associated with ADGN-peptide at molar ratio 20/1 (peptide/nucleic acid). LS513, Panc1, PK-45H, PK1, HS-68 and HT-29 cells were cultured in 48 well plate format and treated with free mRNACas9-gRNA, or ADGN/mRNACas9:gRNA complex. Indel frequencies at the endogenous target sequences was evaluated 72 hours after transfection by either T7E1 method or deep sequencing. Cell proliferation was analyzed over a period of 5 days using CellTiter Glow kits on GlowMax (Promega).

[1] = test system: PANC1, PK1, LS513 and PK-45H cells; experiment: Cell proliferation over 5 days (CellTiter Glow); settings: PANC1, PK1, LS513, PK-45H vs HT29 or HS-68 cells harboring KRAS WT
Description: as §2, §5

KRAS 35G>A mutant G12D = experiment: Indel frequencies at the endogenous target sequences (T7E1 / deep sequencing) after ADGN/Cas9 mRNA/gRNA transfection; settings: for disruption of G12D mutant KRAS (FIG. 2A): G12D cancer cells vs wild type KRAS cells (HT29 or HS-68); for indel frequencies: deep sequencing, 72 hours after transfection, Cas9 mRNA 0.1 μg, gRNA 0.2 μg
Description: as §1, §2, §5, §3

KRAS 35G>T mutant G12V = experiment: as above; settings: SW403, SW480 vs wild type KRAS HT29 cells; T7E1
Description: as §1, §2, §4, §3

Row | Sequence | indel editing and disruption of G12C mutant KRAS (FIG. 3A) (KRAS 34G>T mutant G12C) | indel frequencies (wild type KRAS; HS68 cells (WT KRAS)) | indel frequencies (wild type KRAS; HT-29 cells (WT KRAS)) | inhibition of proliferation or survival (FIG. 2B) [1] | disruption of G12D mutant KRAS (FIG. 2A) (KRAS 35G>A mutant G12D) | indel frequencies (KRAS 35G>A mutant G12D; LS513 cells) | indel frequencies (KRAS 35G>A mutant G12D; PANC1 cells) | indel frequencies (KRAS 35G>A mutant G12D; PK1 cells) | indel frequencies (KRAS 35G>A mutant G12D; PK-45H cells) | indel editing and disruption of G12V mutant KRAS (FIG. 1A) (KRAS 35G>T mutant G12V)
1 | AGC TTG TGG CGT AGG CAA (guide AGCTTGTGGCGTAGGCAA; chemistry not given here) [gRNA34T2, sgRNA target KRAS G12C mutation (34G>T); PAM GAG] | inefficient or less specific affecting wild type KRAS |  |  |  |  |  |  |  |  | 
2 | CTT GTG GCG TAG GCA AGAGT (guide CTTGTGGCGTAGGCAAGAGT; sgRNA, chemical modifications not given here, further chemistry not given here) [gRNA34T8, sgRNA target KRAS G12C mutation (34G>T); PAM GCC] | inefficient or less specific affecting wild type KRAS |  |  |  |  |  |  |  |  | 
3 | GTAGTTGGAGCTGATGGCGT (guide GTAGTTGGAGCTGATGGCGT; chemistry not given here) [gRNA35A7, sgRNA target KRAS G12D mutation (35G>A); PAM AGG] |  | 4 ± 0.4% | 7 ± 2% | specifically inhibit proliferation or survival of PANC1, PK1, LS513 and PK-45H cells | induced efficient disruption of G12D mutant KRAS | 24 ± 2% | 47 ± 1% | 31 ± 2% | 35 ± 0.5% | 
4 | TTG TGG TAG TTG GAG CTG A (guide TTGTGGTAGTTGGAGCTGA; chemistry not given here) [gRNA35A8, sgRNA target KRAS G12D mutation (35G>A); PAM TGG] |  | 6 ± 0.1% | 2 ± 0.2% |  |  | 7 ± 1% | 9 ± 2% | 18 ± 1% | 11 ± 1% | 
5 | AGC TGA TGG CGT AGG CAA (guide AGCTGATGGCGTAGGCAA; chemistry not given here) [gRNA35A3, sgRNA target KRAS G12D mutation (35G>A); PAM GAG] |  | 4 ± 1% | 1 ± 0.5% |  |  | 9 ± 1% | 7 ± 1% | 2 ± 0.5% | 4 ± 1% | 
6 | GGTAGTTGGAGCTGATGGCG (guide GGTAGTTGGAGCTGATGGCG; chemistry not given here) [gRNA35A2, sgRNA target KRAS G12D mutation (35G>A); PAM TAG] |  | 6 ± 2% | 2 ± 1% | specifically inhibit proliferation or survival of PANC1, PK1, LS513 and PK-45H cells | induced efficient disruption of G12D mutant KRAS | 31 ± 2% | 58 ± 4% | 48 ± 2% | 52 ± 5% | 
7 | GCT TGT GGC GTA GGC AA (guide GCTTGTGGCGTAGGCAA; sgRNA, chemical modifications not given here, further chemistry not given here) [gRNA34T7, sgRNA target KRAS G12C mutation (34G>T); PAM GAG] | inefficient or less specific affecting wild type KRAS |  |  |  |  |  |  |  |  | 
8 | TGA TGG CGT AGG CAA GAGT (guide TGATGGCGTAGGCAAGAGT; chemistry not given here) [gRNA35A4, sgRNA target KRAS G12D mutation (35G>A); PAM GCC] |  | 5 ± 0.7% | 2 ± 1% |  |  | 5 ± 2% | 4 ± 1% | 9 ± 0.1% | 7 ± 2% | 
9 | GCT GAT GGC GTA GGC AA (guide GCTGATGGCGTAGGCAA; chemistry not given here) [gRNA35A9, sgRNA target KRAS G12D mutation (35G>A); PAM GAG] |  | 12 ± 1% | 17 ± 3% |  | induced efficient disruption of G12D mutant KRAS | 21 ± 3% | 25 ± 3% | 34 ± 1% | 18 ± 2% | 
10 | GGTAGTTGGAGCTTGTGGCG (guide GGTAGTTGGAGCTTGTGGCG; chemistry not given here) [gRNA34T4, sgRNA target KRAS G12C mutation (34G>T); PAM TAG] | inefficient or less specific affecting wild type KRAS |  |  |  |  |  |  |  |  | 
11 | TTG TGG TAG TTG GAG CTG T (guide TTGTGGTAGTTGGAGCTGT; chemistry not given here) [gRNA35T7, sgRNA target KRAS G12V mutation (c.35G>T); PAM TGG] |  |  |  |  |  |  |  |  |  | specifically induced indel editing and efficient disruption
